Laboratory results as given in patent US7144922B2, “Method and compound for the prophylaxis or treatment of an immunodeficiency condition, such as AIDS” (priority 2002, dated 2006).
Like-named read-outs stand apart in the source and are kept apart here. One block for each compound: values may come before it.

Assays:
HIV-1 (RF) = test: Antiviral drug assay in CEM-SS cells infected with HIV-1 RF (efficacy, tetrazolium reduction); format: cell-based; details: for Efficacy % CC (cell control): CEM-SS, HIV-1 (RF), day 6; for EC50: read-out: 50% effective concentration (EC50)
Procedure: Antiviral Drug Assay in CEM-SS Cells
(§1) This assay was used to test the effectiveness of anti-HIV drug monotherapy in the established T-cell line CEM-SS infected with HIV-1RF, HIV-1IIIb, HIV-2ROD, or other cytolytic variants of HIV. The antiviral agent and control (known antiviral drug—AZT) efficacy and cytotoxicity were determined by the metabolic reduction of the tetrazolium salt MTS (available from Promega).
(§2) The drugs were solubilized in DMSO (dimethyl sulfoxide). Three to ten vials of the antiviral agent and AZT were prepared and maintained at −70° C. CEM-SS cells were in logarithmic growth phase at the time of experimentation. Virus (HIV-1RF) stocks that past the necessary quality controls (killing effect on the type of cells used, limited variability, etc) were thawed and maintained on ice until required for addition.
(§3) Half-log serial dilutions of the antiviral agent or compound of the invention, H2K1001 (90i), were made in tissue culture media (RPMI 1640 without phenol red, supplemented with 10% heat inactivated fetal bovine serum, 1% L-Glutamine, 1% Pen/Strep and 50 ug/ml gentimycin). Virus, cell, drug and diluent (ethanol) controls were included for these tests. Virus was added after cells and drugs were mixed. Cell, drug, and virus containing cultures were incubated for six (6) days without additional feeding at which time the cultures were evaluated macrosopically and microscopically for cell toxicity, and the tetrazolium salt MTS was added for quantitation by the colorimetric determination of formazan production (optical density).
(§4) Drug efficacy and cytotoxicity effects were determined six days after infection by the metabolic reduction of the tetrazolium salt XTT to its' formazan by surviving cells and was quantitated by determination of optical density at 450 nm with background subtraction at 650 nm (Tables 1–4).
(§5) The drug plate analysis reports from this assay are provided below in Tables 1–4. Calculated endpoints (EC50, etc.) were determined using Cho and Cho Median Effect Equation (Daids Virology Manual for HIV Laboratories, Compiled by The Division of Aids, National Institute of Allergy and Infectious Diseases, National Institutes of Health and Collaborating Investigators, Version January 1997).

[1] = test system: CEM-SS T-lymphoblastoid cells; test: Toxicity testing in CEM-SS T-lymphoblastoid cells (tetrazolium reduction); format: cell-based; details: for Toxicity % CC (cell control): day 6; for IC50: read-out: 50% inhibitory concentration, IC50 (drug induced toxicity)
Procedure: as §1, §2, §3, §4, §5

HIV-1 (P2) = test: Antiviral drug assay in PBMC infected with clinical isolate HIV-1 P2 (supernatant p24 ELISA); format: cell-based; details: for Efficacy % p24 Reduction: HIV-1 P2, day 7
Procedure: (§6) This assay was used to test the effectiveness of anti-HIV drug monotherapy in peripheral blood mononuclear cells (PBMC) infected with clinical isolates of HIV-1. Drug efficacy was determined by the production of supernatant HIV-1 p24. Drug-induced cytotoxicity was determined by the metabolic reduction of tetrazolium salts (MTS; Promega).
(§7) The antiviral drug or agent of the invention, H2K-1001 (90i), was solubilized. PBMCs, stimulated with PHA (phytohemagglutinin) for three days were employed throughout. Virus stocks (U.S. Clinical isolates) grown in PBMCs only, that past the necessary quality controls (i.e., replicate to high titer in PBMCs and meet the requirements as to genotype and phenotype) were rapidly thawed and maintained on ice until required for infection.
(§8) Half-log serial dilutions of test drugs and controls were prepared in tissue culture media (RPMI 1640 without phenol red, supplemented with 10% heat inactivated fetal bovine serum, 1% L-Glutamine, 1% Pen/Strep and 50 μg/ml gentamicin). Virus and cell controls were included on each test plate. Virus was added after cells and drugs were mixed. Cell, drug and virus containing cultures were incubated for seven (7) days with an interim feeding at day three or four.
(§9) Supernatants were sampled at seven days for p24 determination by antigen capture ELISA. Cytotoxicity was measured by the metabolic reduction of the tetrazolium salt according to the manufacturer's (Promega) recommendations.
(§10) The drug analysis reports from these studies are provided below in Tables 7–10. Efficacy (EC50) and viability (IC50) determinations were made using Cho and Cho Median Effect Equation, as noted above. Efficacy is expressed as the 50% effective concentration (EC50) and drug induced toxicity as the 50% inhibitory concentration (IC50).

[2] = test system: peripheral blood mononuclear cells (PBMC); test: Toxicity testing in PBMC (tetrazolium MTS reduction); format: cell-based
Procedure: as §6, §7, §8, §9, §10

susceptible isolates = test: AZT in studies of susceptible isolates in PBMCs; format: cell-based, HIV-1; details: typical value
Procedure: Testing in PBMCs was directed against a primary clinical isolate of HIV-1 P2, which is resistant to a variety of non-nucleoside inhibitors or HIV-1 reverse transcriptase and, in our hands, AZT. Testing AZT (control) against this virus, as expected, produced a relatively high EC50 of 3 uM. Typically AZT produces EC50s of less than 0.01 uM in studies of susceptible isolates in PBMCs.

EC50 (HIV-1 (RF); CEM-SS cells, HIV-1 RF): ~0.0035 µM | EC50 (HIV-1 (P2); clinical isolate HIV-1 P2, read-out: EC50): 3 µM | EC50 (susceptible isolates): < 0.01 µM
Structure (SMILES): Cc1cn([C@H]2C[C@H](N=[N+]=[N-])[C@@H](CO)O2)c(=O)[nH]c1=O [AZT, reference compound]
Efficacy % CC (cell control) (HIV-1 (RF); 0.001 uM): 42% | Efficacy % CC (cell control) (HIV-1 (RF); 0.003 uM): 44% | Efficacy % CC (cell control) (HIV-1 (RF); 0.01 uM): 90% | Efficacy % CC (cell control) (HIV-1 (RF); 0.03 uM): 83% | Efficacy % CC (cell control) (HIV-1 (RF); 0.1 uM): 85% | Efficacy % CC (cell control) (HIV-1 (RF); 0.3 uM): 82% | Efficacy % CC (cell control) (HIV-1 (RF); 1 uM): 90% | Efficacy % CC (cell control) (HIV-1 (RF); 3 uM): 82% | Efficacy % CC (cell control) (HIV-1 (RF); 10 uM): 87% | Toxicity % CC (cell control) ([1]; 0.001 uM, CEM-SS): 93% | Toxicity % CC (cell control) ([1]; 0.003 uM, CEM-SS): 100% | Toxicity % CC (cell control) ([1]; 0.01 uM, CEM-SS): 109% | Toxicity % CC (cell control) ([1]; 0.03 uM, CEM-SS): 104% | Toxicity % CC (cell control) ([1]; 0.1 uM, CEM-SS): 102% | Toxicity % CC (cell control) ([1]; 0.3 uM, CEM-SS): 102% | Toxicity % CC (cell control) ([1]; 1 uM, CEM-SS): 96% | Toxicity % CC (cell control) ([1]; 3 uM, CEM-SS): 95% | Toxicity % CC (cell control) ([1]; 10 uM, CEM-SS): 95% | IC50 ([1]; CEM-SS cells): > 10 µM | Efficacy % p24 Reduction (HIV-1 (P2); 0.001 uM): 12% | Efficacy % p24 Reduction (HIV-1 (P2); 0.003 uM): 21% | Efficacy % p24 Reduction (HIV-1 (P2); 0.01 uM): 14% | Efficacy % p24 Reduction (HIV-1 (P2); 0.03 uM): 10% | Efficacy % p24 Reduction (HIV-1 (P2); 0.10 uM): 20% | Efficacy % p24 Reduction (HIV-1 (P2); 0.32 uM): 26% | Efficacy % p24 Reduction (HIV-1 (P2); 1 uM): 22% | Efficacy % p24 Reduction (HIV-1 (P2); 3 uM): 51% | Efficacy % p24 Reduction (HIV-1 (P2); 10 uM): 77% | Toxicity % CC (cell control) ([2]; 0.001 uM): 100% | Toxicity % CC (cell control) ([2]; 0.003 uM): 111% | Toxicity % CC (cell control) ([2]; 0.01 uM): 100% | Toxicity % CC (cell control) ([2]; 0.03 uM): 99% | Toxicity % CC (cell control) ([2]; 0.10 uM): 101% | Toxicity % CC (cell control) ([2]; 0.32 uM): 99% | Toxicity % CC (cell control) ([2]; 1 uM): 105% | Toxicity % CC (cell control) ([2]; 3 uM): 105% | Toxicity % CC (cell control) ([2]; 10 uM): 104%

Structure (SMILES): O=C(OCCOCCOC(=O)c1ccccc1)c1ccccc1 [H2K1001 (90i), diethylene glycol dibenzoate]
Efficacy % CC (cell control) (HIV-1 (RF); 0.01 ug/ml): 42% | Efficacy % CC (cell control) (HIV-1 (RF); 0.03 ug/ml): 80% | Efficacy % CC (cell control) (HIV-1 (RF); 0.1 ug/ml): 87% | Efficacy % CC (cell control) (HIV-1 (RF); 0.3 ug/ml): 83% | Efficacy % CC (cell control) (HIV-1 (RF); 1 ug/ml): 84% | Efficacy % CC (cell control) (HIV-1 (RF); 3 ug/ml): 84% | Efficacy % CC (cell control) (HIV-1 (RF); 10 ug/ml): 82% | Efficacy % CC (cell control) (HIV-1 (RF); 33 ug/ml): 86% | Efficacy % CC (cell control) (HIV-1 (RF); 100 ug/ml): 88% | 50% effective concentration (EC50) (HIV-1 (RF); CEM-SS cells, HIV-1 RF, listed as 90i): approximately 0.020 ug/ml | EC50 (HIV-1 (RF); Human immunodeficiency virus 1, CEM-SS, CEM-SS cells, HIV-1 RF): 0.02 mg/L | Toxicity % CC (cell control) ([1]; 0.01 ug/ml, CEM-SS): 100% | Toxicity % CC (cell control) ([1]; 0.03 ug/ml, CEM-SS): 103% | Toxicity % CC (cell control) ([1]; 0.1 ug/ml, CEM-SS): 104% | Toxicity % CC (cell control) ([1]; 0.3 ug/ml, CEM-SS): 100% | Toxicity % CC (cell control) ([1]; 1 ug/ml, CEM-SS): 100% | Toxicity % CC (cell control) ([1]; 3 ug/ml, CEM-SS): 99% | Toxicity % CC (cell control) ([1]; 10 ug/ml, CEM-SS): 93% | Toxicity % CC (cell control) ([1]; 33 ug/ml, CEM-SS): 94% | Toxicity % CC (cell control) ([1]; 100 ug/ml, CEM-SS): 106% | 50% inhibitory concentration, IC50 (drug induced toxicity) ([1]; CEM-SS cells, listed as 90i): > 100 mg/L | IC50 ([1]; Homo sapiens, CEM-SS): > 100 mg/L | Efficacy % p24 Reduction (HIV-1 (P2); 0.01 ug/ml): 23% | Efficacy % p24 Reduction (HIV-1 (P2); 0.03 ug/ml): 25% | Efficacy % p24 Reduction (HIV-1 (P2); 0.10 ug/ml): 36% | Efficacy % p24 Reduction (HIV-1 (P2); 0.33 ug/ml): 36% | Efficacy % p24 Reduction (HIV-1 (P2); 1 ug/ml): 53% | Efficacy % p24 Reduction (HIV-1 (P2); 3 ug/ml (3.2 in Table 11)): 87% | Efficacy % p24 Reduction (HIV-1 (P2); 10 ug/ml): 95% | Efficacy % p24 Reduction (HIV-1 (P2); 32 ug/ml): 94% | Efficacy % p24 Reduction (HIV-1 (P2); 100 ug/ml): 93% | EC50 (HIV-1 (P2); Human immunodeficiency virus 1, PBMC, clinical isolate HIV-1 P2, read-out: 50% effective concentration (EC50)): 0.8 mg/L | 50% effective concentration (EC50) (HIV-1 (P2); clinical isolate HIV-1 P2, listed as 90i): approximately 0.8 ug/ml | Toxicity % CC (cell control) ([2]; 0.01 ug/ml): 94% | Toxicity % CC (cell control) ([2]; 0.03 ug/ml): 103% | Toxicity % CC (cell control) ([2]; 0.10 ug/ml): 91% | Toxicity % CC (cell control) ([2]; 0.33 ug/ml): 94% | Toxicity % CC (cell control) ([2]; 1 ug/ml): 97% | Toxicity % CC (cell control) ([2]; 3 ug/ml (3.2 in Table 11)): 94% | Toxicity % CC (cell control) ([2]; 10 ug/ml): 100% | Toxicity % CC (cell control) ([2]; 32 ug/ml): 104% | Toxicity % CC (cell control) ([2]; 100 ug/ml): 111% | IC50 ([2]; no unit printed, read-out: IC50 (drug induced toxicity)): > 100 mg/L | IC50 ([2]; read-out: 50% inhibitory concentration, IC50 (drug induced toxicity)): > 100 mg/L
